Laboratory results reported in patent US20180344696A1, “SYNERGISTIC COMBINATION OF PYRROLIDONE CARBOXYLIC ACID AND/OR SALTS THEREOF AND HYALURONIC ACID AND/OR SALTS THEREOF, FOR USE IN THE TREATMENT AND/OR PREVENTION OF DRYNESS AND IRRITATION OF THE MUCOSAE, AND RELATED PHARMACEUTICAL FORMULATIONS” (LABORATORI BALDACCI S.P.A., priority 2015, published 2018).

Assays:
[1] = Hygroscopic test according to Farmacopea Ufficiale Italiana (FUI) XII; type: physicochemical; conditions: 5.00 g dried sample, 25° C., 24 hours
Protocol: The determination of hygroscopicity of the combination of PCA and hyaluronic acid was performed, a test related to the hydration capability of a compound or mixture of compounds, to evaluate the synergism of the combination of PCA and hyaluronic acid for use in the treatment and/or prevention of dryness and irritation of the mucosae. […] At the end of the procedure, the contained was closed with its lid and weighed again (m3).

[2] = Determination of PCA permanence on the nasal mucosa (HPLC recovery after applying gel); type: in vivo, human
Protocol: The samples were taken at various time points after administration, in order to accurately collect all the material present on the mucosa. After restoring to a certain volume of water (20 ml), the suspension obtained was filtered, and then 20 μl were injected into a chromatograph for quantitative analysis. A Waters liquid chromatograph with the following parameters was used: • Column: μBondapack C18 • Mobile phase: 0.1 M phosphoric acid at pH 3 with sodium hydroxide. • Flow: 1.5 ml/min • Detector: Spectrophotometer at 210 nm

[3] = Permanence of PCA in mucosal tissue after topical application (general statements); type: in vivo

| Compound | Result (hygroscopicity class) [1] | Water adsorption (%) (average of the triplicate) [1] | Water adsorption (g) (average of the triplicate) [1] | Final Weight ([1]; desiccator with saturated ammonium chloride or ammonium sulfate solution) [g] | PCA percentage present in the nasal mucosa, % of recovery based on the standard ([2]; T = 0 after administration, 100 mg gel of Example 2 (1% PCA, 0.05% hyaluronic acid) on nasal mucosa) [% n = 1] | PCA percentage present in the nasal mucosa, % of recovery based on the standard ([2]; T = 60 after administration, 100 mg gel of Example 2 on nasal mucosa) [% n = 2] | PCA percentage present in the nasal mucosa, % of recovery based on the standard ([2]; T = 120 after administration, 100 mg gel of Example 2 on nasal mucosa) [% n = 2] | PCA percentage present in the nasal mucosa, % of recovery based on the standard ([2]; T = 180 after administration, 100 mg gel of Example 2 on nasal mucosa) [% n = 3] | Time PCA is present on the nasal mucosa after application ([2]; gel formulation from Example 2 on the nasal mucosa) [h] | Administered amount of PCA identified in mucosal tissues ([3]; 4 hours after a topical application of the formulations of the invention) | Time PCA remains in the mucosae ([3]; after topical application) [h] |
| --- | --- | --- | --- | --- | --- | --- | --- | --- | --- | --- | --- |
| Hyaluronic acid [100% HA] | hygroscopic | 6.00 | 0.30 | 5.30 ± 0.05 |  |  |  |  |  |  |  |
| O=C1CCC(C(=O)O)N1 (centres unmarked) [PCA, Pyrrolidone carboxylic acid] |  |  |  |  | 95 | 80 | 78 | 70 | ≥ 4 | approximately 80% | > 4 |
